Columns and labels:
[1] = Ground state acidity (pKa) from α-plot of UV-Vis spectra at various pH; type: physicochemical
Description: (§1) Thus pKa* is most commonly calculated from the difference in the S1 excited state 0-0 transition of the acid (EHA) and the conjugate base (EA−)(2c). In order to determine the excited state acidity of the vanillin analogs, the ground state acidity was determined. An α-plot was made, by taking the UV-Vis spectra of ortho-vanillin at various pH using NaOH and HCl as the base and acid respectively (5c). Both iso-vanillin and vanillin ground state acidities were literature reported. After obtaining the ground state acidity the excited state acidity (pKa*) was investigated. Fluorescence, phosphorescence and luminescence spectra were measured in different solvents. It was determined that none of the vanillin analogs fluoresced appreciably and therefore were all poor photoacids. […] Various substituted Grignard reagents were used to reduce the carbonyl to a tertiary alcohol therefore eliminating the carbonyl functionality and hindering inter-system crossing (FIG. 32).
(§2) The ground state and excited state acidities were determined. […] Derivatives 1a and 1b were handled in a similar fashion.

[2] = Excited state acidity / photoacidity (pKa*) from Foster cycle; type: physicochemical
From the text: Investigations commenced determining the extent or existence of excited state proton transfer, photoacidity (pKa*), of vanillin and its analogs ortho-vanillin and iso-vanillin. From the Foster cycle, pKa* is mathematically defined by the following equation,
=pKa*+pKa+(EA−−EHA)/2.3RT.^1 (1)
as §1, §2

SMILES | pKa [1] | pKa* [2]
COc1cc(C(C)O)ccc1O (stereo not drawn) [1a] | 9.8 | 9.6
COc1ccc(C(C)O)cc1O (stereo not drawn) [1b] | 9.8 | 5.6
COc1cccc(C(C)O)c1O (stereo not drawn) [1c] | 8 | 4.9

From US20210163424A1, “ECO-FRIENDLY MATERIALS AND METHODS FOR RENEWABLE AND SUSTAINABLE APPLICATIONS IN MATERIAL CHEMISTRY” (NDSU RESEARCH FOUNDATION, priority 2016, published 2021)
